Measured values from patent US20020198189A1, “New use” (priority 2000, published 2002).

melting point: 166 to 167 °C
SMILES: CCCC1c2nc[nH]c2CCN1C(=O)OCc1ccccc1.O=C(O)C(F)(F)F (stereo not shown)
